Measured values: ChEMBL document CHEMBL1201862, “PubChem BioAssay data set” (2004)
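Growth conditions: 96-well plates. Treatment: test compound, 48 hours, 5 concentrations. Analysis: linear interpolation between bracketing concentrations; unreached endpoints set to highest concentration. GI50 is the concentration that inhibits growth by half.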 Active and inactive are the calls of the source. Cut-off read from the data, not from the text of the source: active = GI50 up to about 1.1 µM and inactive = higher.

Legend:
Assay in all cases: DTP human tumour cell line panel, 48 h
A549 = system: A549
ACHN = system: ACHN
EKVX = system: EKVX
HCT-116 = system: HCT-116
HOP-62 = system: HOP-62
MCF7 = system: MCF7
MDA-MB-435 = system: MDA-MB-435
MOLT-4 = system: MOLT-4
NCI-H226 = system: NCI-H226
NCI-H522 = system: NCI-H522
OVCAR-3 = system: OVCAR-3
OVCAR-4 = system: OVCAR-4
PC-3 = system: PC-3
SF-295 = system: SF-295
SK-MEL-5 = system: SK-MEL-5
SN12C = system: SN12C
T47D = system: T47D
TK-10 = system: TK-10
U-251 = system: U-251

Measured: GI50

COC(=O)C1Cc2c([nH]c3ccccc23)-c2[nH]c3ccccc3c2CC(NC(C)=O)C(=O)NCC(=O)N1 (stereo not given)
inactive: A549 > 100 µM | ACHN > 100 µM | EKVX > 100 µM | HCT-116 > 100 µM | HOP-62 > 100 µM | MCF7 > 100 µM | MDA-MB-435 > 100 µM | MOLT-4 > 100 µM | NCI-H226 > 100 µM | NCI-H522 > 100 µM | OVCAR-3 > 100 µM | OVCAR-4 > 100 µM | PC-3 > 100 µM | SF-295 > 100 µM | SK-MEL-5 > 100 µM | SN12C > 100 µM | T47D > 100 µM | TK-10 > 100 µM | U-251 > 100 µM

O=C(/C=N/O)Nc1cc(Cl)c(Cl)cc1Cl
inactive: A549 34.5 µM | ACHN 29.9 µM | EKVX 23.2 µM | HCT-116 37.1 µM | HOP-62 31.6 µM | MCF7 22.6 µM | MDA-MB-435 23 µM | MOLT-4 15.1 µM | NCI-H522 24.9 µM | OVCAR-3 24.4 µM | OVCAR-4 26.1 µM | PC-3 33.2 µM | SF-295 27 µM | SK-MEL-5 17.7 µM | SN12C 23.9 µM | T47D 16.5 µM | TK-10 30.4 µM | U-251 29.2 µM

COc1cc(C=C2C(=O)NC(=S)NC2=O)cc(OC)c1OC
inactive: A549 > 100 µM | ACHN > 100 µM | EKVX > 100 µM | HCT-116 > 100 µM | HOP-62 > 100 µM | MCF7 > 100 µM | MDA-MB-435 > 100 µM | MOLT-4 > 100 µM | NCI-H226 > 100 µM | OVCAR-3 > 100 µM | OVCAR-4 > 100 µM | PC-3 > 100 µM | SF-295 > 100 µM | SK-MEL-5 > 100 µM | SN12C > 100 µM | T47D > 100 µM | TK-10 > 100 µM | U-251 > 100 µM

Cc1n[nH]c(=O)n1/N=C/c1ccc([N+](=O)[O-])o1
inactive: A549 16.7 µM | ACHN 10.9 µM | EKVX 17.5 µM | HCT-116 8.39 µM | HOP-62 26.9 µM | MCF7 18 µM | MDA-MB-435 5.3 µM | MOLT-4 5.7 µM | NCI-H226 15.6 µM | NCI-H522 3.13 µM | OVCAR-3 5.58 µM | OVCAR-4 16.7 µM | PC-3 29 µM | SF-295 25.8 µM | SK-MEL-5 3.56 µM | SN12C 5.64 µM | T47D 19.5 µM | TK-10 18.1 µM | U-251 21.7 µM

Cc1[nH]n(-c2nc(O)c(C)c(=O)[nH]2)c(=O)c1CCO
inactive: A549 > 100 µM | ACHN > 100 µM | EKVX > 100 µM | HCT-116 > 100 µM | MCF7 > 100 µM | MDA-MB-435 > 100 µM | MOLT-4 > 100 µM | NCI-H226 > 100 µM | NCI-H522 > 100 µM | OVCAR-4 > 100 µM | PC-3 > 100 µM | SF-295 > 100 µM | SK-MEL-5 > 100 µM | SN12C > 100 µM | T47D > 100 µM | TK-10 > 100 µM | U-251 > 100 µM

CCOC(=O)c1c(CN2CCNCC2)nc2ccccc2c1-c1ccccc1
inactive: A549 16.7 µM | ACHN 16.8 µM | EKVX 15.5 µM | HCT-116 11.4 µM | HOP-62 16.9 µM | MCF7 14.3 µM | MDA-MB-435 14.3 µM | MOLT-4 10.8 µM | NCI-H226 18.6 µM | NCI-H522 14.3 µM | OVCAR-3 17.5 µM | OVCAR-4 15 µM | PC-3 13.4 µM | SF-295 15.1 µM | SK-MEL-5 13.6 µM | SN12C 14.7 µM | T47D 13.9 µM | TK-10 14.3 µM | U-251 14.3 µM

O=C(N/N=C(COc1ccccc1)\N=C\c1ccncc1)c1ccncc1
inactive: A549 > 100 µM | ACHN > 100 µM | EKVX > 100 µM | HCT-116 > 100 µM | HOP-62 > 100 µM | MCF7 > 100 µM | MDA-MB-435 > 100 µM | MOLT-4 82 µM | OVCAR-3 > 100 µM | OVCAR-4 > 100 µM | PC-3 > 100 µM | SF-295 > 100 µM | SN12C > 100 µM | T47D > 100 µM | TK-10 > 100 µM | U-251 > 100 µM

CCN1C(=O)C(=C/C=C/c2ccc([N+](=O)[O-])cc2)C(=O)N(CC)C1=S
inactive: A549 > 100 µM | ACHN 18.1 µM | EKVX 21 µM | HCT-116 17.6 µM | HOP-62 19.1 µM | MCF7 23.6 µM | MDA-MB-435 23.4 µM | MOLT-4 29.6 µM | NCI-H226 25.4 µM | OVCAR-3 17.8 µM | OVCAR-4 33 µM | PC-3 19.3 µM | SF-295 > 100 µM | SK-MEL-5 20.8 µM | SN12C 21.5 µM | T47D > 100 µM | TK-10 19.4 µM | U-251 18.5 µM

CC(C)(CO)NC(=O)Nc1c(C(F)(F)F)cc(-c2ccccc2)[nH]c1=O
inactive: A549 > 100 µM | ACHN > 100 µM | EKVX > 100 µM | HCT-116 > 100 µM | HOP-62 > 100 µM | MCF7 > 100 µM | MDA-MB-435 > 100 µM | MOLT-4 > 100 µM | NCI-H226 > 100 µM | NCI-H522 > 100 µM | OVCAR-3 29.4 µM | PC-3 > 100 µM | SF-295 > 100 µM | SK-MEL-5 > 100 µM | SN12C > 100 µM | T47D > 100 µM | TK-10 > 100 µM | U-251 > 100 µM

CC(C)C1/C(=N/O)CC(c2ccccc2)N(N=O)C1c1ccccc1 (stereo not given)
inactive: A549 30.1 µM | ACHN 36.4 µM | EKVX 20.9 µM | HCT-116 28.5 µM | HOP-62 72.6 µM | MCF7 32.4 µM | MDA-MB-435 26.7 µM | MOLT-4 32.3 µM | NCI-H226 37.1 µM | NCI-H522 37 µM | OVCAR-3 36.8 µM | OVCAR-4 22.8 µM | PC-3 33.3 µM | SF-295 30.5 µM | SK-MEL-5 30.2 µM | SN12C 53.7 µM | T47D 39.6 µM | TK-10 62.2 µM | U-251 52.7 µM

CC1=CC(C)C/C=C/C2C3OC3(C)C(C)C3C(Cc4c[nH]c5ccccc45)NC(=O)C23C(=O)C=CC(=O)C1O (stereo not given)
inactive: A549 8.3 µM | ACHN 1.35 µM | EKVX 1.19 µM | HCT-116 2.95 µM | HOP-62 6.79 µM | MCF7 5.78 µM | MDA-MB-435 17.9 µM | MOLT-4 2.01 µM | NCI-H226 12.9 µM | NCI-H522 1.4 µM | OVCAR-3 5.26 µM | OVCAR-4 11.8 µM | PC-3 11.6 µM | SF-295 11.9 µM | SK-MEL-5 10.7 µM | SN12C 8.77 µM | T47D 1.65 µM | TK-10 1.53 µM | U-251 16.4 µM
